{"source": "patent US10328077B2", "about": "(CELGENE CORPORATION, priority 2016, dated 2019)", "key": {"[1]": {"system": "gene expression in MKL-1 and MS-1 hMCC cell lines", "assay": "RNA-seq modulation of gene expression in cultured hMCC cells", "type": "cell-based, human", "conditions": "10 and 100 nM", "experimental": "The modulation of gene expression by Compund A for a panel of human genes was determined by culturing MKL-1 or MS-1 cells (Sigma-Aldrich, St. Louis, Mo.) for three days in the presence of 0, 10, or 100 nM Compund A and extracting total RNA for assessment by RNA-seq.\nLibraries were sequenced on an Illumina NextSeq® 500 System (Illumina, San Diego, Calif.) using 75 base paired-end RNA sequencing. Sequenced reads were mapped to the hg19 human genome build and differential expression was determined by analysis of variance across all replicates relative to the vehicle control.\nSequenced reads were mapped to the hg19 human genome build using the Spliced Transcripts Alignment to a Reference (STAR) software tool (©Alexander Dobin, 2009-2016) and transcript counts were normalized using the Empirical Analysis of Digital Gene Expression Data in R (edgeR) and Differential gene expression analysis based on the negative binomial distribution (DESeq2) software tools (©Bioconductor, 2003-2017). Differential expression was determined by analysis of variance across all replicates relative to the vehicle control."}, "CYP2C19": {"target": "CYP2C19 (Homo sapiens (Human), UniProt P33261)", "sequence (P33261 whole entry)": "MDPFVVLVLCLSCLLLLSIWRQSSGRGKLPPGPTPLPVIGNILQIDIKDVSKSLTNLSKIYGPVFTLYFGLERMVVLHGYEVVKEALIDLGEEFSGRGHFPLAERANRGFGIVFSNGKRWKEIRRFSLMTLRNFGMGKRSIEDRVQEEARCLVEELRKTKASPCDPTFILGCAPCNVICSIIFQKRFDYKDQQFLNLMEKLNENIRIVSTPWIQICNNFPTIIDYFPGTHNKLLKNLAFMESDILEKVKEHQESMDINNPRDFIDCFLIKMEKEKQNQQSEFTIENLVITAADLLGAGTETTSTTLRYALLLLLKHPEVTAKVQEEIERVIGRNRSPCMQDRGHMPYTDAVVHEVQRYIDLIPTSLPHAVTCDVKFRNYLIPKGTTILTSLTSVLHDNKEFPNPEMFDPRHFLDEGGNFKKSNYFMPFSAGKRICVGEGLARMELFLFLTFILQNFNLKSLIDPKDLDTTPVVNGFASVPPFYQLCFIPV", "assay": "CYP inhibition in pooled human liver microsomes, CYP2C19", "type": "in vitro ADME"}, "[2]": {"system": "GA0087 gastric NEC patient-derived xenograft", "type": "in vivo"}, "hERG potassium channel": {"target": "hERG potassium channel (Homo sapiens (Human), UniProt Q12809)", "sequence (Q12809 whole entry)": "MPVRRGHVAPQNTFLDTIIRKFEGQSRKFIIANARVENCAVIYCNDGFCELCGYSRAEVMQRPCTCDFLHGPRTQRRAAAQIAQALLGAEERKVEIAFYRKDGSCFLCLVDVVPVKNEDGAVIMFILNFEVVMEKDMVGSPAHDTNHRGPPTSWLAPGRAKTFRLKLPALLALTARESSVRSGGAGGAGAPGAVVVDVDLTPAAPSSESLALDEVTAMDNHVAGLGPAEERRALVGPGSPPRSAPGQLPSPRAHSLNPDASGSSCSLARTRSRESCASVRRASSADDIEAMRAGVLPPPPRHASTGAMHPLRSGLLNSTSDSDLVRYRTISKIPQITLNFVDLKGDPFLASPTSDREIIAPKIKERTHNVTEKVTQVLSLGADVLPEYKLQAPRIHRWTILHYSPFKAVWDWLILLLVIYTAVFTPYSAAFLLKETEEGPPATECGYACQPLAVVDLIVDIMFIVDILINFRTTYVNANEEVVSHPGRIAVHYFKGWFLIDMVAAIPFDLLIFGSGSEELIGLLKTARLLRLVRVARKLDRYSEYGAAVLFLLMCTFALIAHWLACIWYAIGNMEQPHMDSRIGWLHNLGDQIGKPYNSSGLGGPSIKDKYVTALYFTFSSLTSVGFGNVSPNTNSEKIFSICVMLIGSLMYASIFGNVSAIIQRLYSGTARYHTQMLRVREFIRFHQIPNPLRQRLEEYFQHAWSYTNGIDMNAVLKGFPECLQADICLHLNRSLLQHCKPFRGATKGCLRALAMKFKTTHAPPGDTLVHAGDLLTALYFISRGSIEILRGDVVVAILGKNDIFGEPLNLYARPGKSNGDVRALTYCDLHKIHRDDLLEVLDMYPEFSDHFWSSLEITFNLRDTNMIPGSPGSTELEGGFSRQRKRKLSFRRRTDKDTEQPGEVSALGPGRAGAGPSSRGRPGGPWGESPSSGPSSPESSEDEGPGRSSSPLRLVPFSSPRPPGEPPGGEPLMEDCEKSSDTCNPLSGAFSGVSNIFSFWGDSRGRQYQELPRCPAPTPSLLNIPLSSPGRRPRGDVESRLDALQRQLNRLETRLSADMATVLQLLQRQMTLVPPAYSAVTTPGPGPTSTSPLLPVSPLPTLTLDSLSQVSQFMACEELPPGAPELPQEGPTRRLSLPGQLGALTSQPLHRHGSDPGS", "assay": "in vitro", "conditions": "HEK293 cells stably expressing hERG channels"}, "CYP1A2 mRNA": {"system": "CYP1A2 mRNA", "assay": "CYP induction in cryopreserved human hepatocytes, CYP1A2", "type": "in vitro ADME", "conditions": "0.03 to 10 μM, up to 3 days"}, "CYP2C9": {"target": "CYP2C9 (Homo sapiens (Human), UniProt P11712)", "sequence (P11712 whole entry)": "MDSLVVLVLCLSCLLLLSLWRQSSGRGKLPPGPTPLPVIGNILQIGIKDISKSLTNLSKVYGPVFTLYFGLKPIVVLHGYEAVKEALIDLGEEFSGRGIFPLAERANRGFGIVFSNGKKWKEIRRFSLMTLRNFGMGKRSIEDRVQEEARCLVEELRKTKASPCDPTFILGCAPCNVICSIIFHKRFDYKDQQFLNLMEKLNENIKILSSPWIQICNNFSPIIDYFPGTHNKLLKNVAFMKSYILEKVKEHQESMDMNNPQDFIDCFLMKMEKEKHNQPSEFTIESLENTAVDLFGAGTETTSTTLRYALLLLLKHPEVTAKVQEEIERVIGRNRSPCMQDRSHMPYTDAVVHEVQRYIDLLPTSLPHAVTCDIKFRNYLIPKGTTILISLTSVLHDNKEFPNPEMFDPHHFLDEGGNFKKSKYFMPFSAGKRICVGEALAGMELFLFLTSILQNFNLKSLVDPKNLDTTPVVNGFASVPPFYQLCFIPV", "assay": "CYP inhibition in pooled human liver microsomes, CYP2C9", "type": "in vitro ADME", "conditions": "up to 50 μM"}, "[3]": {"assay": "Excretion in bile duct cannulated rats", "type": "in vivo", "conditions": "IV, 24-hour period"}, "MKL-1 hMCC xenograft": {"system": "MKL-1 hMCC xenograft", "type": "in vivo", "conditions": "5 mg/kg PO 5 on/2 off"}, "[4]": {"assay": "Plasma protein binding, human"}, "[5]": {"assay": "4-week toxicity study (no recovery period) in dogs (incl. TK)"}, "CYP3A4 mRNA": {"system": "CYP3A4 mRNA", "assay": "CYP induction in cryopreserved human hepatocytes, CYP3A4", "type": "in vitro ADME", "conditions": "0.03 to 10 μM, up to 3 days"}, "[6]": {"system": "LXFS 573 SCLC patient-derived xenograft"}, "[7]": {"assay": "Pharmacokinetics after IV and oral dose, mice", "type": "in vivo, CD-1 mice", "conditions": "mouse"}, "[8]": {"conditions": "Compound A 5 mg/kg/day PO days 1-133"}, "[9]": {"conditions": "CD-1, plasma, female, single IV dose 5 mg"}, "[10]": {"conditions": "CD-1, plasma, female, single oral dose 10 mg base/kg"}}, "note": "Where two headings read alike, the source gives them in different places."}
{"smiles": "COc1ccc(-c2c(-c3ccc(C#N)c(F)c3)nc(N3CCC(N)CC3)n(C)c2=O)cc1F", "note": "[Compound A, 4-[2-(4-amino-piperidin-1-yl)-5-(3-fluoro-4-methoxy-phenyl)-1-methyl-6-oxo-1,6-dihydro-pyrimidin-4-yl]-2-fluoro-benzonitrile]", "values": [{"measurement": "downregulated genes with expression changes in both hMCC lines at both concentrations (of 4303)", "setting": "[1]; 3 days, MKL-1 and MS-1", "value": 17}, {"measurement": "upregulated genes with expression changes in both hMCC lines at both concentrations (of 3803)", "setting": "[1]; 3 days, MKL-1 and MS-1", "value": 172}, {"measurement": "ST18 and FREM2 gene expression change (upregulated)", "setting": "[1]; both hMCC lines", "value": "at least 2 fold"}, {"measurement": "IC50", "setting": "CYP2C19", "value": "> 50", "unit": "µM"}, {"measurement": "Median Tumor Volume Day 53", "setting": "[2]; 5 mg/kg PO QD x 53", "value": 673.2, "unit": "mm^3"}, {"measurement": "Median Tumor Volume Diff (Day 53 - Day 0)", "setting": "[2]; 5 mg/kg PO QD x 53", "value": 863.3, "unit": "mm^3"}, {"measurement": "tolerability", "setting": "[2]; 1.5 and 5 mg/kg oral QD", "value": "acceptably tolerated"}, {"measurement": "inhibition at 0.3 µM", "setting": "hERG potassium channel", "value": "5.9 ± 1.3", "unit": "%"}, {"measurement": "inhibition at 1 µM", "setting": "hERG potassium channel", "value": "17.8 ± 0.3", "unit": "%"}, {"measurement": "inhibition at 3 µM", "setting": "hERG potassium channel", "value": "47 ± 1.9", "unit": "%"}, {"measurement": "inhibition at 10 µM", "setting": "hERG potassium channel", "value": "77.3 ± 0.2", "unit": "%"}, {"measurement": "increase in CYP1A2 mRNA over vehicle control", "setting": "CYP1A2 mRNA", "value": "< 2", "unit": "fold"}, {"measurement": "direct inhibition of CYP2C9", "setting": "CYP2C9", "value": "little to no direct inhibitory effect"}, {"measurement": "dose excreted intact (urine + bile)", "setting": "[3]", "value": "26.3 % of the dose"}, {"measurement": "dose excreted intact in bile", "setting": "[3]", "value": "17.8 % of dose"}, {"measurement": "dose excreted intact in urine", "setting": "[3]", "value": "8.5 % of dose"}, {"measurement": "Median Tumor Volume Day 15", "setting": "MKL-1 hMCC xenograft", "value": 880, "unit": "mm^3"}, {"measurement": "Median Tumor Volume Diff (Day 15 - Day -3)", "setting": "MKL-1 hMCC xenograft", "value": 815, "unit": "mm^3"}, {"measurement": "bound to plasma proteins", "setting": "[4]", "value": 83, "unit": "%"}, {"measurement": "HNSTD", "setting": "[5]; Q2W administration", "value": 0.5, "unit": "mg base/kg/dose"}, {"measurement": "NOAEL", "setting": "[5]; Q2W administration", "value": "< 0.5", "unit": "mg base/kg/dose"}, {"measurement": "NOAEL", "setting": "[5]; QW administration", "value": 0.125, "unit": "mg base/kg/dose"}, {"measurement": "HNSTD", "setting": "[5]; QW dosing", "value": 0.25, "unit": "mg base/kg/dose"}, {"measurement": "increase in CYP3A4 mRNA over vehicle control", "setting": "CYP3A4 mRNA", "value": "< 2", "unit": "fold"}, {"measurement": "% TGD", "setting": "[6]; [8]", "value": 217, "unit": "%"}, {"measurement": "T − C", "setting": "[6]; [8]", "value": 91, "unit": "days"}, {"measurement": "median TTE", "setting": "[6]; [8]", "value": 133, "unit": "days"}, {"measurement": "median TTE", "setting": "[6]; Compound A monotherapy 5 mg/kg PO daily", "value": 133, "unit": "days"}, {"measurement": "study survivors", "setting": "[6]; Compound A monotherapy 5 mg/kg, Day 133, n=8", "value": "seven"}, {"measurement": "MTV of study survivors", "setting": "[6]; mouse, in vivo", "value": 1064, "unit": "mm3"}, {"measurement": "MTV, median tumor volume of study survivors", "setting": "[6]; mouse, in vivo", "value": "(1064) mm^3"}, {"measurement": "SS, number of study survivors", "setting": "[6]; mouse, in vivo", "value": 7}, {"measurement": "half-life", "setting": "[7]; CD-1 (mice), Sprague Dawley (rats), plasma, IV, rodents (mice, rats), read-out: half-life", "value": "2 to 4", "unit": "h"}, {"measurement": "Tmax", "setting": "[7]; CD-1, Sprague Dawley, Beagle, plasma, oral, across mice, rats, dogs, monkeys, read-out: median tmax", "value": "0.5 to 6", "unit": "h"}, {"measurement": "bioavailability", "setting": "[7]; CD-1, Sprague Dawley, plasma, po, rodents, read-out: oral bioavailability", "value": "28 to 74", "unit": "%"}, {"measurement": "AUC(0-inf)", "setting": "[7]; [9]", "value": 2660, "unit": "ng·h/mL"}, {"measurement": "AUC(0-t)", "setting": "[7]; [9]", "value": 2220, "unit": "ng·h/mL"}, {"measurement": "clearance", "setting": "[7]; [9]", "value": 32, "unit": "mL/min/kg"}, {"measurement": "Vd", "setting": "[7]; CD-1, plasma, female, single IV dose 5 mg, read-out: Vss", "value": 7.51, "unit": "L/kg"}, {"measurement": "half-life", "setting": "[7]; CD-1, plasma, female, single IV dose 5 mg, read-out: t1/2, z (converted)", "value": 3.8, "unit": "h"}, {"measurement": "AUC(0-t)", "setting": "[7]; [10]", "value": 2010, "unit": "ng·h/mL"}, {"measurement": "Cmax", "setting": "[7]; [10]", "value": 510, "unit": "ng/mL"}, {"measurement": "bioavailability", "setting": "[7]; CD-1, plasma, female, single oral dose 10 mg base/kg, read-out: % F", "value": 38, "unit": "%"}, {"measurement": "half-life", "setting": "[7]; CD-1, plasma, female, single oral dose 10 mg base/kg, read-out: t1/2, z (converted)", "value": 1.7, "unit": "h"}, {"measurement": "Tmax", "setting": "[7]; CD-1, plasma, female, single oral dose 10 mg base/kg, read-out: tmax", "value": 0.5, "unit": "h"}]}
